Experimental data taken from US5902817A, “Certain sulfoxide and sulfone derivatives” (priority 1997, dated 1999).
Where two headings read alike, the source gives them in different places. Where a SMILES comes first, the peptide text is derived from it.

What was measured:
[1] = In Vivo Toxicity of NAALADase Inhibitors (survival of mice); conditions: mouse, injected, read-out: Survival Rate After 5 days
Description: The mice were subsequently observed two times per day for 5 consecutive days.

cortical cell cultures = experiment: In Vitro Toxicity of NAAG following Treatment with NAALADase Inhibitors (LDH release); format: cell-based, rat (Harlan Sprague Dawley); conditions: inhibitor 1 μM; NAAG 3 μM, n = 1
Description: Experiments are performed after 21 days in cultures.
At the end of exposure, the cells are washed once with HEPES buffered saline solution and then replaced with serum free modified Earle's basal medium. The cultures are then returned to the CO2 incubator for 24 hour recovery.
This control measurement is subtracted from each experimental point.

[2] = system: injury to the cortex in rats following middle cerebral artery occlusion; conditions: n = 10
Description: A colony of SHRSP rats is bred at Johns Hopkins School of Medicine from three pairs of male and female rats obtained from the National Institutes of Health (Laboratory, Sciences Section, Veterinary Resources Program, National Center for Research Resources, Bethesda, Md.). All rats are kept in a virus-free environment and maintained on regular diet (NIH 31, Zeigler Bros, Inc.) with water ad libitum. All groups of rats are allowed to eat and drink water until the morning of the experiment. […]
Arterial pH and PaCO2, and partial pressure of oxygen (PaO2) are measured with a self-calibrating Radiometer electrode system (ABL 3; Copenhagen, Denmark). Hemoglobin and arterial oxygen content are measured with a hemoximeter (Radiometer, Model OSM3; Copenhagen, Denmark). Blood glucose is measured with a glucose analyzer (model 2300A, Yellow Springs Instruments, Yellow Springs, Ohio).
Each group is exposed to 2 hours of right MCA occlusion and 22 hours of reperfusion. All variables but the rectal temperature are measured at baseline, at 15 minutes and 45 minutes of right MCA occlusion. The rectal temperature is measured at baseline, at 0 and 15 min of MCA occlusion, and at 0 and 22 hours of reperfusion.

LNCAP cells = conditions: 7 days, mean +/- SEM
Description: On the 7th day, the cells are pulsed with 3H-thymidine for 4 hours, harvested and measured for radioactivity. Values represent means +/- SEM of 6 separate cell wells for each treatment. All experiments are performed at least twice.
LNCAP cells are obtained from Dr. William Nelson at the Johns Hopkins School of Medicine in Baltimore, Md. […] Cells are grown in RPMI-1640 media supplemented with 5% heat-inactivated fetal calf serum, 2 mM-glutamine, 100 units/ml penicillin, and 100 μg/ml streptomycin (Paragon) in a humidified incubator at 37° C. in a 5% CO2 /95% air atmosphere.
The cells are suspended at 1×10^3 cells/ml in RPMI-1640 media and seeded into 24-well plates at 500 μl per well. […] On days 3, 5 and 7, media and drug are refreshed. On the 8th day following seeding, each well is pulsed with 1 μCi ^3 H-thymidine (New England Nuclear) for 4 hours. Media is then removed and the wells washed 2 times with phosphate buffered saline (pH=7.4). […] 5 ml UltimaGold (Packard) scintillation cocktail is added and radioactivity is quantitated using a Beckman LS6001 scintillation counter.

NAALADase [3] = biological target: T1, NAALADase (Rattus norvegicus, UniProt P70627); experiment: In Vitro Assay of NAALADase Activity ([3H]Glu liberated from [3H]NAAG, synaptosomal protein); format: biochemical; parameters: of synaptosomal protein; from tissue; host or cells: synaptosomal protein (brain tissue; rat by inference)
Description: Substrate and product were resolved by anion-exchange liquid chromatography. […] Quisqualate (100 μM) was included in parallel assay tubes to confirm the specificity of the measurements.

NAALADase [4] = biological target: T1, NAALADase; conditions: substrate NAAG; cited from earlier work

T1 sequence (P70627 whole entry): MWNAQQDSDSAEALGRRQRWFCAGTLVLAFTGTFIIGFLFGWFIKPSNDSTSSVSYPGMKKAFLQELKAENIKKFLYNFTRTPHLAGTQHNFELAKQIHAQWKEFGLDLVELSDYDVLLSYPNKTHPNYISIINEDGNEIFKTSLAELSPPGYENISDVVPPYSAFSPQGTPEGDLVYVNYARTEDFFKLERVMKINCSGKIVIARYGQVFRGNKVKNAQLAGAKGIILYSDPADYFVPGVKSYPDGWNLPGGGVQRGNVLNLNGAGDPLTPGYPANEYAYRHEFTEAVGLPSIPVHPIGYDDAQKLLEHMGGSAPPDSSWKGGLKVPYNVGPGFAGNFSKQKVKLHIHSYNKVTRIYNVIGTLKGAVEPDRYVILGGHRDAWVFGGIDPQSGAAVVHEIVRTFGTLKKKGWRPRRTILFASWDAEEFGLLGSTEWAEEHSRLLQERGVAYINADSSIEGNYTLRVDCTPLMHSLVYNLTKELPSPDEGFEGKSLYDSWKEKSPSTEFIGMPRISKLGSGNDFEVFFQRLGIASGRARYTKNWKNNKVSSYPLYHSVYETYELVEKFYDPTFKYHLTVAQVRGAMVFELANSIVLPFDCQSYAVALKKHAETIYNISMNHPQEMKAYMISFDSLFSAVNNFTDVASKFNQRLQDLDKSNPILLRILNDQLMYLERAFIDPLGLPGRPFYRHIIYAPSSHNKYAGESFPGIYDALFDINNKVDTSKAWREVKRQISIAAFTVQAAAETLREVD

O=C(O)CCC(CP(=O)(O)O)C(=O)O (centres unmarked) [2-(phosphonomethyl)pentanedioic acid]
survival at 120 h ([1]; 1 mg/kg): 100% | survival at 120 h ([1]; 5 mg/kg): 100% | survival at 120 h ([1]; 10 mg/kg): 100% | survival at 120 h ([1]; 30 mg/kg): 100% | survival at 120 h ([1]; 100 mg/kg): 100% | survival at 120 h ([1]; 300 mg/kg): 100% | survival at 120 h ([1]; 500 mg/kg): 66.7% | % Toxicity (cortical cell cultures): -4.71% | Cortical Injury Volume ± S.E.M. ([2]; 10 mg/kg followed by 2 mg/kg/hr for 1 hour): 135.00 ± 32.18 mm^3 | Cortical Injury Volume ± S.E.M. ([2]; 100 mg/kg followed by 20 mg/kg/hr for one hour): 65.23 ± 32.18 mm^3 | 3H-Thymidine Incorporation (LNCAP cells; dose 10 pM): 3078 ± 1006 dpm/well | 3H-Thymidine Incorporation (LNCAP cells; dose 100 pM): 2062 ± 595 dpm/well | 3H-Thymidine Incorporation (LNCAP cells; dose 1 nM): 1001 ± 52 dpm/well | 3H-Thymidine Incorporation (LNCAP cells; dose 10 nM): 664 ± 366 dpm/well | NAALADase inhibiting activity (in words) (NAALADase [3]): high NAALADase inhibiting activity

O=C(O)CCC(CP(=O)(O)CCC(=O)O)C(=O)O (centres unmarked) [2-[[2-carboxyethyl)hydroxyphosphinol]methyl]pentanedioic acid]
NAALADase inhibiting activity (in words) (NAALADase [3]): lower NAALADase inhibiting activity than 2-(phosphonomethyl)pentanedioic acid

CC(=O)N[C@@H](CC(=O)O)C(=O)N[C@@H](CCC(=O)O)C(=O)O [NAAG, N-acetyl-aspartyl-glutamate] (Ac-Asp-Glu-OH)
Km (NAALADase [4]): 0.54 µM
